Experimental data taken from patent US20080249131A1, “NON-NUCLEOSIDE REVERSE TRANSCRIPTASE INHIBITORS” (priority 2002, published 2008).
Read-outs that look alike come from different tables or passages of the source.

Assays:
[1] = test system: human immunodeficiency virus type 1 (HIV-1); experiment: Inhibitory activity against HIV (EC50), cell-based luciferase reporter assay
From the text: […]. Experimental procedures were essentially as described by Connor et al. in Journal of Virology (1996), 70: 5306-5311 (Characterization of the functional properties of env genes from long-term survivors of human immunodeficiency virus type 1 infection), and Popik et al. in Journal of Virology (2002), 76: 4709-4722 (Human immunodeficiency virus type 1 uses lipid raft-colocalized CD4 and chemokine receptors for productive entry into CD4^+ T cells). It should be particularly appreciated that the virus contains two introduced mutations in the RT gene (K103N and Y181C, created by PCR mutagenesis) that render the virus highly resistant to current non-nucleoside HIV-1 drugs. Virus stocks were generated by cotransfection of plasmid DNA encoding VSV-G with vector pNL4-3Env(−)Luc(+) into 293T cells. Sixty-four hours after transfection, virus-containing medium was collected by centrifugation and stored frozen at −80° C.
HeLa cells were infected with the VSV-G pseudotyped virus in the presence of screening compounds in a 384-well microtiter plate format. Forty-eight hours after initial infection, lysis buffer and Luciferase Assay Reagent (Promega) was added to the cells and luciferase activity was determined by counting the resultant luminescence using a LJL luminometer. Since the luciferase gene is carried in the virus genome, its expression level directly reflects the virus replication level in the presence of a compound.
To evaluate the activity of the compounds against wild type HIV-1, the HeLa-JC53 cell line that expresses high levels of CD4 and CCR5 (see e.g., Platt et al. in Journal of Virology (1998), 72: 2855-2864: Effect of CCR5 and CD4 cell surface concentrations on infection by macrophagetropic isolates of human immunodeficiency virus type 1) was modified by isolation of a stable cell line that expresses luciferase under the control of the HIV-1 promoter (long terminal repeat, i.e., LTR). HIV-1 infection of this cell line stimulates the transcription of luciferase from the HIV-1 promoter and the luciferase gene expression level is proportional to the level of virus replication (Harrington et al. in Journal of Virology Methods (2000), 88: 111-115: Direct detection of infection of HIV-1 in blood using a centrifugation-indicator cell assay; and Roos et al. in Virology (2000), 273: 307-315: LuSIV cells: a reporter cell line for the detection and quantitation of a single cycle of HIV and SIV replication). Procedures for virus infection, compound testing and luciferase activity determination were the same as for the VSV-G pseudotyped HIV-1.

[2] = target: T1, wild-type HIV RT (Human immunodeficiency virus type 1 group M subtype B, UniProt P03366); experiment: IC50 for wild-type HIV RT; format: biochemical
T1 construct: IC50 is indicated in microM for wild-type HIV RT

[3] = Table 1, inhibitory activity against HIV, read-out: EC50

Compound | EC50 ([1]; Human immunodeficiency virus 1) [µM] | IC50 ([2]; Table 1) [µM] | EC50 [1, 3] [µM] | IC50 ([2]; Table 1, numeric value) [µM]
O=C(CSc1nnc(C2CCCCC2)n1-c1ccccc1)Nc1ccccc1Br [compound 34] | > 100 | 10 to 100 | – | –
Cc1ccccc1NC(=O)CSc1nnc(-c2ccc(Cl)cc2)[nH]1 [compound 26] | – | – | 10 to 100 | –
Cc1ccc(NC(=O)CSc2nnc(COc3ccc(C#N)cc3)n2-c2ccccc2)c(Br)c1 [compound 44] | > 100 | 10 to 100 | – | –
Cc1ccc(NC(=O)CSc2nnc(C)n2-c2ccccc2)cc1 [compound 47] | – | – | > 100 | –
Cc1cccc(NC(=O)CSc2nnc(C)n2-c2ccccc2)c1 [compound 40] | – | 10 to 100 | > 100 | –
CC(=O)c1ccc(NC(=O)CSc2nnc(C)n2-c2ccc(C)cc2)cc1 [compound 41] | > 100 | 10 to 100 | – | –
Cc1ccc(-n2c(SCC(=O)Nc3ccc(C)cc3Br)nnc2-c2ccncc2)cc1 [compound 36] | – | – | > 100 | –
Cc1cc(C)c(NC(=O)CSc2nnc(C)n2-c2ccccc2)c(C)c1 [compound 51] | – | – | > 100 | –
Cc1ccc(NCc2nnc(SCC(=O)Nc3ccc(C)cc3Br)n2-c2ccccc2)cc1 [compound 33] | > 100 | 10 to 100 | – | –
Cc1ccc(NC(=O)CSc2nnc(C)n2-c2ccccc2)cc1C [compound 30] | – | – | > 100 | –
Cc1ccc(-n2c(C)nnc2SCC(=O)Nc2ccc(C)c(Cl)c2)cc1 [compound 39] | – | – | > 100 | –
Cc1ccc(NC(=O)CSc2nnc(Cc3ccccc3)n2C)c(Br)c1 [compound 29] | – | 10 to 100 | > 100 | –
O=C(CSc1nnc(-c2ccncc2)n1-c1ccccc1)Nc1ccccc1I [compound 24] | – | – | > 100 | –
Cn1c(SCC(=O)Nc2ccccc2)nnc1-c1ccc(Br)cc1 [compound 27] | – | – | > 100 | –
O=C(CSc1nnc(-c2ccc(Cl)cc2)n1-c1ccccc1)Nc1ccccn1 [compound 25] | – | – | > 100 | –
Cc1nnc(SCC(=O)Nc2ccccc2)n1-c1ccccc1 [compound 49] | – | – | > 100 | –
Cc1nnc(SCC(=O)Nc2ccccc2C(F)(F)F)n1-c1ccccc1Cl [compound 23] | – | – | > 100 | –
Cc1ccc(NC(=O)CSc2nnc(-c3ccccc3C)n2-c2ccccc2)c(Br)c1 [compound 52] | > 100 | 10 to 100 | – | –
Cc1ccc(NC(=O)C(C)Sc2nnc(C)n2-c2ccc(C)cc2)cc1 (stereo not drawn) [compound 45] | – | – | > 100 | 36.3
Cc1ccc(-c2nnc(SCC(=O)Nc3ccccc3Br)n2C)cc1 [compound 37] | – | – | > 100 | –
Cc1ccc(NC(=O)CSc2nnc(-c3ccncc3)n2-c2ccccc2Cl)c(Br)c1 [compound 46] | > 100 | > 100 | – | –
